# Assay results published in patent publication US20130065818A1, “Arylamide Compounds And Compositions And Uses Thereof” (POLYMEDIX, priority 2006, published 2013).
# Values joined by “and” are separate entries in the source; they are usually repeats but may differ in a detail not shown here. Equal entries are not always repeated. “Also recorded” adds a separate entry of the source.
# What was measured:
# [1] = Draize ocular toxicity scoring, NZW rabbit ocular toxicity model; format: in vivo; set-up: key to MMTS / Score (Draize total): Draize total score of cornea, iris and conjunctivae; maximum 110; III. B. Chemosis / I. A. Cornea opacity / I. B. Area of cornea involved / II. A. Iris / III. A. Conjunctivae redness / III. C. Discharge: scale not given here
# Procedure: The ocular toxicity of several concentrations of Oligomer 2, using the Draize ocular toxicity scoring system, in the NZW rabbit ocular toxicity model was carried out.
# (§1) Rabbits were treated in both eyes with (37 μl) topical drops every 30 minutes for 3 hours (7 total doses). One rabbit was treated with Tris-Buffered Saline and served as a negative control. Rabbits were evaluated in a masked fashion for ocular toxicity by an ophthalmologist with specialty training in corneal and external disease. Ocular toxicity was evaluated using the Draize scoring system after treatment on Day 0 and on Day 3 post treatment for any delayed toxicity. (Draize et al., J. Pharmacol. Exp. Ther., 1944, 82, 377-390).
# A brief summary of the Draize scoring system for ocular lesions is provided below
# Total Maximum Score: 110 represents the sum of all scores obtained for the cornea, iris and conjunctivae.
# The ocular toxicity of several formulations of Oligomer 4 with and without farnesol, using the Draize ocular toxicity scoring system, in the NZW rabbit ocular toxicity model was carried out.
# as §1, with “external disease 30 minutes after the final dose.” for “external disease.”, “system (see above)” for “system”, “Day 2” for “Day 3”, “toxicity.” for “toxicity. (Draize et al., J. Pharmacol. Exp. Ther., 1944, 82, 377-390).”
# [2] = tested on: fluoroquinolone-resistant, methicillin-resistant Staphylococcus aureus (K950); experiment: NZW rabbit keratitis model, corneal colony counts; format: in vivo; conditions: for Log10 CFU/ml, Median / Log10 CFU/ml Maximum / Log10 CFU/ml Minimum / Log10 CFU/ml, Mean: 6 corneas; for Mean Rank, Kruskal-Wallis ANOVA with Duncan Multiple Comparisons Test - Log10 CFU/ml / Statistical comparison of colony counts between groups (< = significantly fewer colony counts): P = 0.05; for Log10 CFU/ml Maximum / Log10 CFU/ml Minimum / Log10 CFU/ml, Mean: Descriptive Statistics; for Reduction of colony counts compared with the Saline Control: corneal epithelium intact or removed; for Log10 CFU/ml: individual corneas (Row 1-6; K-3, K-4); for CFU/ml: individual corneas (Row 1-6; Ker-3, Ker-4)
# Text: (§2) One purpose of the following experiments was to compare the efficacy of 1% Oligomer 2, 0.5% Oligomer 2, and 5% vancomycin in the treatment of a fluoroquinolone-resistant, methicillin-resistant Staphylococcus aureus infection in the NZW rabbit keratitis model with or without intact corneal epithelia.
# Nothing was done to the right eyes.
# as §2, with “0.25%” for “1%”, “with and without 0.005% benzalkonium chloride,” for “0.5% Oligomer 2,”, “epithelia. The 0.005% benzalkonium chloride has been added to try to increase the penetration of 0.25% Oligomer 2 through the corneal epithelium.” for “epithelia.”
# One purpose of the following experiments was to determine the efficacy of 0.25% Oligomer 4, with and without 200 μM Farnesol, and 200 μM Farnesol in the treatment of a fluoroquinolone-resistant and methicillin-resistant Staphylococcus aureus infection in the NZW rabbit keratitis model with or without intact corneal epithelia. The 200 μM Farnesol has been added to try to increase the efficacy and penetration of 0.25% Oligomer 4 through the corneal epithelium.
# P. aeruginosa ATCC 10145 = experiment: MIC, laboratory strains (Example 8); format: cell-based
# E. faecalis ATCC 29212 = experiment: MIC, laboratory strains (Example 8); format: cell-based
# [3] = 100 μM Farnesol in 1% PG and TBS, Day 0
# [4] = 100 μM Farnesol in 1% PG and TBS, Day 0, per eye
# [5] = 100 μM Farnesol in 1% PG and TBS, Day 2
# [6] = 100 μM Farnesol in 1% PG and TBS, Day 2, per eye
# [7] = 100 μM in 1% Propylene Glycol (PG) and TBS, Day 0
# [8] = 100 μM in 1% Propylene Glycol (PG) and TBS, Day 2
# [9] = 200 μM Farnesol in 1% PG and TBS, Day 0
# [10] = 200 μM Farnesol in 1% PG and TBS, Day 0, per eye
# [11] = 200 μM Farnesol in 1% PG and TBS, Day 2
# [12] = 200 μM Farnesol in 1% PG and TBS, Day 2, per eye
# [13] = 200 μM in 1% Propylene Glycol (PG) and TBS, Day 0
# [14] = 200 μM in 1% Propylene Glycol (PG) and TBS, Day 2
smiles,measurement,setting,value
N=C(N)NCCCCC(=O)Nc1cc(C(F)(F)F)cc(NC(=O)c2cc(C(=O)Nc3cc(C(F)(F)F)cc(NC(=O)CCCCNC(=N)N)c3SCCN)ncn2)c1SCCN [Oligomer 2],I. A. Cornea opacity,"[1]; NZW, rabbit, in vivo, 0 day",0
same,I. B. Area of cornea involved,"[1]; NZW, rabbit, in vivo, 0 day",0
same,"I. Tot (cornea, A × B × 5)","[1]; NZW, rabbit, in vivo, 0 day",0
same,I. A. Cornea opacity,"[1]; NZW, rabbit, in vivo, 3 day",0
same,I. B. Area of cornea involved,"[1]; NZW, rabbit, in vivo, 3 day",0
same,"I. Tot (cornea, A × B × 5)","[1]; NZW, rabbit, in vivo, 3 day",0
same,II. A. Iris,"[1]; NZW, rabbit, in vivo, 3 day",0
same,"II. Tot (iris, A × 5)","[1]; NZW, rabbit, in vivo, 3 day",0
same,III. A. Conjunctivae redness,"[1]; NZW, rabbit, in vivo, 3 day",0
same,III. B. Chemosis,"[1]; NZW, rabbit, in vivo, 3 day",0
same,III. C. Discharge,"[1]; NZW, rabbit, in vivo, 3 day",0
same,"III. Tot (conjunctivae, (A + B + C) × 2)","[1]; NZW, rabbit, in vivo, 3 day",0
same,Score (Draize total),"[1]; NZW, rabbit, in vivo, 3 day",0
same,Dose dependence of ocular toxicity,"[1]; rabbit, in vivo",dose dependent ocular toxicity
same,Stinging / acute reactions upon instillation,"[1]; rabbit, in vivo",does not sting upon instillation
same,Statistical comparison of corneal colony counts (< = significantly fewer colony counts),"[2]; Ker-1 (Example 9), abraded (removed) epithelium, drops every 15 min, 19 doses",effective
same,Statistical comparison of corneal colony counts (< = significantly fewer colony counts),"[2]; Ker-2 (Example 10), abraded (removed) epithelium, drops every 15 min, 21 doses",effective
same,Effect of addition of 0.005% benzalkonium chloride (BAK) on penetration through the intact corneal epithelium,"[2]; Ker-2, 0.25% Oligomer 2",did not aid in the penetration
same,Penetration of the corneal epithelium into the corneal stroma,[2]; in vivo,does not penetrate the corneal epithelium
N=C(N)NCCCCC(=O)Nc1cc(C(F)(F)F)cc(NC(=O)c2cnc(C(=O)Nc3cc(C(F)(F)F)cc(NC(=O)CCCCNC(=N)N)c3SCCN)cn2)c1SCCN [Oligomer 5],MIC,P. aeruginosa ATCC 10145,> 100 µg/mL
same,MIC,E. faecalis ATCC 29212,1.56 µg/mL
CC(C)=CCCC(C)=CCCC(C)=CCO [Farnesol],Classification of eye irritation,[1]; [3],Non-Irritating
same,MMTS,[1]; [3],0.0
same,MMTS classification symbol,[1]; [3],N (0.0-0.5 Non-Irritating)
same,I. A. Cornea opacity,[1]; [4],0
same,I. B. Area of cornea involved,[1]; [4],0
same,"I. Tot (cornea, A × B × 5)",[1]; [4],0
same,II. A. Iris,[1]; [4],0
same,"II. Tot (iris, A × 5)",[1]; [4],0
same,III. A. Conjunctivae redness,[1]; [4],0
same,III. B. Chemosis,[1]; [4],0
same,III. C. Discharge,[1]; [4],0
same,"III. Tot (conjunctivae, (A + B + C) × 2)",[1]; [4],0
same,Score (Draize total),[1]; [4],0
same,MMTS,[1]; [5],1.5
same,MMTS classification symbol,[1]; [5],PN (0.6-2.5 Practically Non-Irritating)
same,I. A. Cornea opacity,[1]; [6],0
same,I. B. Area of cornea involved,[1]; [6],0
same,"I. Tot (cornea, A × B × 5)",[1]; [6],0
same,II. A. Iris,[1]; [6],0
same,"II. Tot (iris, A × 5)",[1]; [6],0
same,III. A. Conjunctivae redness,[1]; [6],0
same,III. B. Chemosis,[1]; [6],0
same,MMTS,[1]; [7],0.0
same,MMTS classification,[1]; [7],N (0.0-0.5 Non-Irritating)
same,MMTS,[1]; [8],1.5
same,MMTS classification,[1]; [8],PN (0.6-2.5 Practically Non-Irritating)
same,Classification of eye irritation,[1]; [9],Non-Irritating
same,MMTS,[1]; [9],0.5
same,MMTS classification symbol,[1]; [9],N (0.0-0.5 Non-Irritating)
same,I. A. Cornea opacity,[1]; [10],0
same,I. B. Area of cornea involved,[1]; [10],0
same,"I. Tot (cornea, A × B × 5)",[1]; [10],0
same,II. A. Iris,[1]; [10],0
same,"II. Tot (iris, A × 5)",[1]; [10],0
same,III. A. Conjunctivae redness,[1]; [10],0
same,III. B. Chemosis,[1]; [10],0
same,Classification of eye irritation,[1]; [11],Non-Irritating
same,MMTS,[1]; [11],0.5
same,MMTS classification symbol,[1]; [11],N (0.0-0.5 Non-Irritating)
same,I. A. Cornea opacity,[1]; [12],0
same,I. B. Area of cornea involved,[1]; [12],0
same,"I. Tot (cornea, A × B × 5)",[1]; [12],0
same,II. A. Iris,[1]; [12],0
same,"II. Tot (iris, A × 5)",[1]; [12],0
same,III. A. Conjunctivae redness,[1]; [12],0
same,III. B. Chemosis,[1]; [12],0
same,MMTS,[1]; [13],0.5
same,MMTS classification,[1]; [13],N (0.0-0.5 Non-Irritating)
same,MMTS,[1]; [14],0.5
same,MMTS classification,[1]; [14],N (0.0-0.5 Non-Irritating)
same,"Log10 CFU/ml, Median",[2]; Abraded Epithelium,6.849 Log10 CFU/ml and 6.8489 Log10 CFU/ml
same,"Log10 CFU/ml, Median",[2]; Intact Epithelium,7.3000 Log10 CFU/ml
same,"Mean Rank, Kruskal-Wallis ANOVA with Duncan Multiple Comparisons Test - Log10 CFU/ml",[2]; Abraded Epithelium,23.5000
same,Statistical comparison of colony counts between groups (< = significantly fewer colony counts),[2]; Abraded Epithelium,PMX = P + F < ONSET < FARN = CON
same,"Effect of Abraded Epithelium on Effectiveness of Each Test Solution (colony counts, < = significantly fewer)","[2]; Abraded vs. Intact Epithelium, Mann-Whitney Test",FARN-AE < FARN-IE; also recorded: Abraded < Intact
same,Log10 CFU/ml Maximum,[2]; Abraded Epithelium,6.916 Log10 CFU/ml
same,Log10 CFU/ml Minimum,[2]; Abraded Epithelium,6.109 Log10 CFU/ml
same,"Log10 CFU/ml, Mean",[2]; Abraded Epithelium,6.626 Log10 CFU/ml
same,Log10 CFU/ml Maximum,[2]; Intact Epithelium,7.6551 Log10 CFU/ml
same,Log10 CFU/ml Minimum,[2]; Intact Epithelium,7.1818 Log10 CFU/ml
same,"Log10 CFU/ml, Mean",[2]; Intact Epithelium,7.3624 Log10 CFU/ml
same,"Effect of Abraded Epithelium on Effectiveness of Each Test Solution (colony counts, abraded vs. intact)","[2]; Example 11, Mann-Whitney test, < = significantly fewer colony counts",Abraded = Intact
same,"Point estimate for ETA1-ETA2 (Mann-Whitney, Log10 CFU/ml), Intact minus Abraded Epithelium",[2]; IE Log vs AE Log of the same test solution,Point estimate for ETA1-ETA2 is 0.5964
same,"Mean Rank, Kruskal-Wallis ANOVA with Duncan Multiple Comparisons Test - Log10 CFU/ml",[2]; Intact Epithelium,22.1667
same,Statistical comparison of colony counts between groups (< = significantly fewer colony counts),[2]; Intact Epithelium,ONSET = PMX = P + F < FARN = CON
same,Statistical comparison of corneal colony counts (< = significantly fewer colony counts),"[2]; Ker-3 (Example 11), abraded epithelium, 21 doses",PMX═P+F═ONSET<FARN═CON
same,Statistical comparison of corneal colony counts (< = significantly fewer colony counts),"[2]; Ker-3 (Example 11), intact epithelium, 21 doses",ONSET=PMX═P+F<FARN═CON
same,Reduction of colony counts compared with the Saline Control,[2]; Ker-3,NOT effective
same,"Colony counts, corneal epithelium removed compared with intact epithelium",[2]; Ker-4,significantly fewer colony counts in eyes with the corneal epithelium removed
same,Statistical comparison of corneal colony counts (< = significantly fewer colony counts),"[2]; Ker-4 (Example 12), abraded epithelium",PMX═P+F<ONSET<FARN═CON
same,Statistical comparison of corneal colony counts (< = significantly fewer colony counts),"[2]; Ker-4 (Example 12), intact epithelium",ONSET=PMX═P+F<FARN═CON
same,Reduction of colony counts compared with the Saline Control,[2]; Ker-4,not effective
same,Log10 CFU/ml,[2]; Abraded Epithelium,6.875 Log10 CFU/ml and 6.109 Log10 CFU/ml and 6.146 Log10 CFU/ml and 6.889 Log10 CFU/ml and 6.823 Log10 CFU/ml and 6.916 Log10 CFU/ml
same,Log10 CFU/ml,[2]; Intact Epithelium,7.182 Log10 CFU/ml and 7.259 Log10 CFU/ml and 7.479 Log10 CFU/ml and 7.655 Log10 CFU/ml and 7.27 Log10 CFU/ml and 7.33 Log10 CFU/ml
same,CFU/ml,[2]; Abraded Epithelium,7500000 CFU/ml and 1285000 CFU/ml and 1400000 CFU/ml and 7750000 CFU/ml and 6650000 CFU/ml and 8250000 CFU/ml
same,CFU/ml,[2]; Intact Epithelium,15200000 CFU/ml and 18150000 CFU/ml and 30100000 CFU/ml and 45200000 CFU/ml and 18600000 CFU/ml and 21400000 CFU/ml
